Test results from patent publication US20110015068A1, “Herbicidal Compositions Comprising Pyroxasulfone V” (BASF SE, priority 2008, published 2011).
Read-outs that look alike come from different tables or passages of the source.

Legend:
Lolium multiflorum = experiment: post-emergence greenhouse test, LOLMU; assay type: in vivo; details: 20 DAT
Excerpt: (§1) For the post-emergence treatment, the test plants were first grown to a height of 3 to 20 cm, depending on the plant habit, and only then treated. Here, the herbicidal compositions were suspended or emulsified in water as distribution medium and sprayed using finely distributing nozzles.
(§2) The respective herbicides A and/or safener were formulated as 10% by weight strength suspension concentrate and introduced to the spray liquor with the amount of solvent system used for applying the active compound. Herbicide B and/or safener were used as commercially available formulations and introduced to the spray liquor with the amount of solvent system used for applying the active compound. In the examples, the solvent used was water.
(§3) The test period extended over 21 days. During this time, the plants were tended, and their response to the treatments with active compound was evaluated.
(§4) The evaluation for the damage caused by the chemical compositions was carried out using a scale from 0 to 100%, compared to the untreated control plants. Here, 0 means no damage and 100 means complete destruction of the plants.

Kochia scoparia [1] = experiment: pre-emergence greenhouse test, KCHSC; assay type: in vivo; details: Bassia scoparia, 25 g ai/ha, read-out: observed % activity
Excerpt: (§5) For the pre-emergence treatment, directly after sowing the active compounds, which had been suspended or emulsified in water, were applied by means of finely distributed nozzles. The containers were irrigated gently to promote germination and growth and subsequently covered with transparent plastic hoods until plant had rooted. This cover caused uniform germination of the tests plants, unless this was adversely affected by active compounds.
as §2, §3, §4

Alopecurus myosuroides [2] = experiment: post-emergence greenhouse test, ALOMY; assay type: in vivo; details: for observed activity in % destruction: Table 3; for inhibition at 13 g/ha / inhibition at 100 g/ha: Alopecurus myosuroides, read-out: observed % activity; for inhibition at 13 g/ha: 13 g ai/ha
Excerpt: as §1, §2, §3, §4

Polygonum convolvulus = experiment: post-emergence greenhouse test, POLCO; assay type: in vivo; details: for inhibition at 25 g/ha / inhibition at 50 g/ha / inhibition at 100 g/ha: Fallopia convolvulus, read-out: observed % activity; for inhibition at 25 g/ha: 25 g ai/ha; for inhibition at 50 g/ha: 50 g ai/ha; for inhibition at 100 g/ha: 100 g ai/ha
Excerpt: as §1, §2, §3, §4

Bromus inermis = experiment: pre-emergence greenhouse test, BROIN; assay type: in vivo; details: Bromus inermis, 25 g ai/ha, read-out: observed % activity
Excerpt: as §5, §2, §3, §4

Ipomoea purpurea = experiment: pre-emergence greenhouse test, PHBPU; assay type: in vivo; details: Ipomoea purpurea, read-out: observed % activity; for inhibition at 25 g/ha: 25 g ai/ha; for inhibition at 50 g/ha: 50 g ai/ha
Excerpt: as §5, §2, §3, §4

harmful plants = details: known from Y. Yamaji et al., 2006; cited from earlier work
Chenopodium album = experiment: post-emergence greenhouse test, CHEAL; assay type: in vivo; details: for inhibition at 13 g/ha / inhibition at 50 g/ha: Chenopodium album, read-out: observed % activity; for inhibition at 13 g/ha: 13 g ai/ha; for inhibition at 50 g/ha: 50 g ai/ha
Excerpt: as §1, §2, §3, §4

Alopecurus myosuroides [3] = experiment: pre-emergence greenhouse test, ALOMY; assay type: in vivo; details: Alopecurus myosuroides, 50 g ai/ha, read-out: observed % activity
Excerpt: as §5, §2, §3, §4

Solanum nigrum = experiment: post-emergence greenhouse test, SOLNI; assay type: in vivo; details: Solanum nigrum, read-out: observed % activity; for inhibition at 13 g/ha: 13 g ai/ha; for inhibition at 100 g/ha: 100 g ai/ha
Excerpt: as §1, §2, §3, §4

Matricaria inermis [4] = experiment: post-emergence greenhouse test, MATIN; assay type: in vivo; details: 20 DAT
Excerpt: as §1, §2, §3, §4

Avena fatua = experiment: post-emergence greenhouse test, AVEFA; assay type: in vivo; details: 50 g ai/ha, 20 DAT, Table 3
Excerpt: as §1, §2, §3, §4

Ambrosia artemisifolia = experiment: pre-emergence greenhouse test, AMBEL; assay type: in vivo; details: Ambrosia, read-out: observed % activity; for inhibition at 25 g/ha: 25 g ai/ha; for inhibition at 50 g/ha: 50 g ai/ha
Excerpt: as §5, §2, §3, §4

Matricaria inermis [5] = experiment: pre-emergence greenhouse test, MATIN; assay type: in vivo; details: Matricaria, read-out: observed % activity; for inhibition at 25 g/ha: 25 g ai/ha; for inhibition at 50 g/ha: 50 g ai/ha
Excerpt: as §5, §2, §3, §4

Setaria viridis = experiment: post-emergence greenhouse test, SETVI; assay type: in vivo; details: 25 g ai/ha, 20 DAT, Table 3
Excerpt: as §1, §2, §3, §4

Xanthium strumarium = experiment: post-emergence greenhouse test, XANST; assay type: in vivo; details: Xanthium strumarium, read-out: observed % activity; for inhibition at 13 g/ha: 13 g ai/ha; for inhibition at 25 g/ha: 25 g ai/ha; for inhibition at 100 g/ha: 100 g ai/ha
Excerpt: as §1, §2, §3, §4

Setaria italica = experiment: post-emergence greenhouse test, SETIT; assay type: in vivo; details: Setaria italica, read-out: observed % activity; for inhibition at 50 g/ha: 50 g ai/ha; for inhibition at 100 g/ha: 100 g ai/ha
Excerpt: as §1, §2, §3, §4

Setaria faberii = experiment: pre-emergence greenhouse test, SETFA; assay type: in vivo; details: Setaria faberi, read-out: observed % activity; for inhibition at 25 g/ha: 25 g ai/ha; for inhibition at 50 g/ha: 50 g ai/ha
Excerpt: as §5, §2, §3, §4

Galium aparine = experiment: pre-emergence greenhouse test, GALAP; assay type: in vivo; details: Galium aparine, read-out: observed % activity; for inhibition at 25 g/ha: 25 g ai/ha; for inhibition at 50 g/ha: 50 g ai/ha
Excerpt: as §5, §2, §3, §4

Digitaria sanguinalis = experiment: post-emergence greenhouse test, DIGSA; assay type: in vivo; details: 20 DAT
Excerpt: as §1, §2, §3, §4

Kochia scoparia [6] = experiment: post-emergence greenhouse test, KCHSC; assay type: in vivo; details: Bassia scoparia, read-out: observed % activity; for inhibition at 13 g/ha: 13 g ai/ha; for inhibition at 100 g/ha: 100 g ai/ha
Excerpt: as §1, §2, §3, §4

In the case of `Cn1nc(C(F)(F)F)c(CS(=O)(=O)C2=NOC(C)(C)C2)c1OC(F)F` [pyroxasulfone, 3-[5-(difluoromethoxy)-1-methyl-3-(trifluoromethyl)pyrazol-4-ylmethylsulfonyl]-4,5-dihydro-5,5-dimethyl-1,2-oxazole], the “observed activity in % destruction” value (Lolium multiflorum; 12.5 g ai/ha, Table 3) is reported as 55%, the “observed activity in % destruction” value (Lolium multiflorum; 25 g ai/ha, Table 3) is reported as 55% and the “observed activity in % destruction” value (Lolium multiflorum; 50 g ai/ha, Table 4) is reported as 55%. For the same compound, the inhibition at 25 g/ha (Kochia scoparia [1]; 192 h, 8 DAT) was 40%, the inhibition at 25 g/ha (Kochia scoparia [1]; 480 h, 20 DAT) was 98% and the “observed activity in % destruction” value (Alopecurus myosuroides [2]; 50 g ai/ha, 20 DAT) was 55%. For the same compound, the “observed activity in % destruction” value (Alopecurus myosuroides [2]; 100 g ai/ha, 20 DAT) was 80%, the inhibition at 13 g/ha (Alopecurus myosuroides [2]; 192 h, 8 DAT) was 0% and the inhibition at 100 g/ha (Alopecurus myosuroides [2]; 192 h, 100 g ai/ha, 8 DAT) was 40%. The inhibition at 13 g/ha (Alopecurus myosuroides [2]; 480 h, 20 DAT) was 15%, the inhibition at 100 g/ha (Alopecurus myosuroides [2]; 480 h, 100 g ai/ha, 20 DAT) was 75% and the “observed activity in % destruction” value (Polygonum convolvulus; 12.5 g ai/ha, 20 DAT, Table 3) was 35%. The inhibition at 25 g/ha (Polygonum convolvulus; 192 h, 8 DAT) was 30%, the inhibition at 50 g/ha (Polygonum convolvulus; 192 h, 8 DAT) was 50% and the inhibition at 100 g/ha (Polygonum convolvulus; 192 h, 8 DAT) was 50%. For the same compound, the inhibition at 25 g/ha (Polygonum convolvulus; 480 h, 20 DAT) was 50%, the inhibition at 50 g/ha (Polygonum convolvulus; 480 h, 20 DAT) was 50% and the inhibition at 100 g/ha (Polygonum convolvulus; 480 h, 20 DAT) was 55%. For the same compound, the inhibition at 25 g/ha (Bromus inermis; 192 h, 8 DAT) was 60%, the inhibition at 25 g/ha (Bromus inermis; 480 h, 20 DAT) was 75% and the inhibition at 25 g/ha (Ipomoea purpurea; 192 h, 8 DAT) was 40%. The inhibition at 50 g/ha (Ipomoea purpurea; 192 h, 8 DAT) was 65%, the inhibition at 25 g/ha (Ipomoea purpurea; 480 h, 20 DAT) was 50% and the inhibition at 50 g/ha (Ipomoea purpurea; 480 h, 20 DAT) was 90%. The post-emergence activity (harmful plants) was “poor”, the “observed activity in % destruction” value (Chenopodium album; 12.5 g ai/ha, 20 DAT, Table 3) was 35% and the “observed activity in % destruction” value (Chenopodium album; 25 g ai/ha, 20 DAT, Table 4) was 45%. The inhibition at 13 g/ha (Chenopodium album; 192 h, 8 DAT) was 35%, the inhibition at 50 g/ha (Chenopodium album; 192 h, 8 DAT) was 60% and the inhibition at 13 g/ha (Chenopodium album; 480 h, 20 DAT) was 25%. For the same compound, the inhibition at 50 g/ha (Chenopodium album; 480 h, 20 DAT) was 65%, the inhibition at 50 g/ha (Alopecurus myosuroides [3]; 192 h, 8 DAT) was 90% and the inhibition at 50 g/ha (Alopecurus myosuroides [3]; 480 h, 20 DAT) was 98%. For the same compound, the inhibition at 13 g/ha (Solanum nigrum; 192 h, 8 DAT) was 75%, the inhibition at 100 g/ha (Solanum nigrum; 192 h, 8 DAT) was 75% and the inhibition at 13 g/ha (Solanum nigrum; 480 h, 20 DAT) was 75%. For the same compound, the inhibition at 100 g/ha (Solanum nigrum; 480 h, 20 DAT) was 90%, the “observed activity in % destruction” value (Matricaria inermis [4]; 12.5 g ai/ha, Table 3) was 0% and the “observed activity in % destruction” value (Matricaria inermis [4]; 25 g ai/ha, Table 3) was 0%. The “observed activity in % destruction” value (Matricaria inermis [4]; 25 g ai/ha, Table 4) was 0%, the “observed activity in % destruction” value (Avena fatua) was 75% and the inhibition at 25 g/ha (Ambrosia artemisifolia; 192 h, 8 DAT) was 40%. For the same compound, the inhibition at 50 g/ha (Ambrosia artemisifolia; 192 h, 8 DAT) was 50%, the inhibition at 25 g/ha (Ambrosia artemisifolia; 480 h, 20 DAT) was 65% and the inhibition at 50 g/ha (Ambrosia artemisifolia; 480 h, 20 DAT) was 80%. It also gave an inhibition at 25 g/ha (Matricaria inermis [5]; 192 h, 8 DAT) of 0%, an inhibition at 50 g/ha (Matricaria inermis [5]; 192 h, 8 DAT) of 20% and an inhibition at 25 g/ha (Matricaria inermis [5]; 480 h, 20 DAT) of 60%. The inhibition at 50 g/ha (Matricaria inermis [5]; 480 h, 20 DAT) was 85%, the “observed activity in % destruction” value (Setaria viridis) was 75% and the inhibition at 13 g/ha (Xanthium strumarium; 192 h, 8 DAT) was 0%. It also gave an inhibition at 25 g/ha (Xanthium strumarium; 192 h, 8 DAT) of 20%, an inhibition at 100 g/ha (Xanthium strumarium; 192 h, 8 DAT) of 25% and an inhibition at 13 g/ha (Xanthium strumarium; 480 h, 20 DAT) of 0%. For the same compound, the inhibition at 25 g/ha (Xanthium strumarium; 480 h, 20 DAT) was 25%, the inhibition at 100 g/ha (Xanthium strumarium; 480 h, 20 DAT) was 55% and the inhibition at 50 g/ha (Setaria italica; 192 h, 8 DAT) was 25%. The inhibition at 100 g/ha (Setaria italica; 192 h, 8 DAT) was 45%, the inhibition at 50 g/ha (Setaria italica; 480 h, 20 DAT) was 75% and the inhibition at 100 g/ha (Setaria italica; 480 h, 20 DAT) was 80%. The inhibition at 25 g/ha (Setaria faberii; 192 h, 8 DAT) was 85%, the inhibition at 50 g/ha (Setaria faberii; 192 h, 8 DAT) was 90% and the inhibition at 25 g/ha (Setaria faberii; 480 h, 20 DAT) was 98%. It also gave an inhibition at 50 g/ha (Setaria faberii; 480 h, 20 DAT) of 98%, an inhibition at 25 g/ha (Galium aparine; 192 h, 8 DAT) of 50% and an inhibition at 50 g/ha (Galium aparine; 192 h, 8 DAT) of 70%. The inhibition at 25 g/ha (Galium aparine; 480 h, 20 DAT) was 80%, the inhibition at 50 g/ha (Galium aparine; 480 h, 20 DAT) was 90% and the “observed activity in % destruction” value (Digitaria sanguinalis; 12.5 g ai/ha, Table 4) was 50%. For the same compound, the “observed activity in % destruction” value (Digitaria sanguinalis; 50 g ai/ha, Table 3) was 80%, the inhibition at 13 g/ha (Kochia scoparia [6]; 192 h, 8 DAT) was 60% and the inhibition at 100 g/ha (Kochia scoparia [6]; 192 h, 8 DAT) was 60%. It also gave an inhibition at 13 g/ha (Kochia scoparia [6]; 480 h, 20 DAT) of 50% and an inhibition at 100 g/ha (Kochia scoparia [6]; 480 h, 20 DAT) of 70%.
